Assay results: patent US9540391B2, “Isomannide derivatives as inhibitors of soluble epoxide hydrolase” (SANOFI, priority 2013, dated 2017)
Counter-ions that a name gives are not always drawn.

Biological target: T1, recombinant sEH (Homo sapiens, UniProt P34913)
T1 construct: made in house; host or cells: Sf9 insect cells
T1 sequence (P34913 1-555): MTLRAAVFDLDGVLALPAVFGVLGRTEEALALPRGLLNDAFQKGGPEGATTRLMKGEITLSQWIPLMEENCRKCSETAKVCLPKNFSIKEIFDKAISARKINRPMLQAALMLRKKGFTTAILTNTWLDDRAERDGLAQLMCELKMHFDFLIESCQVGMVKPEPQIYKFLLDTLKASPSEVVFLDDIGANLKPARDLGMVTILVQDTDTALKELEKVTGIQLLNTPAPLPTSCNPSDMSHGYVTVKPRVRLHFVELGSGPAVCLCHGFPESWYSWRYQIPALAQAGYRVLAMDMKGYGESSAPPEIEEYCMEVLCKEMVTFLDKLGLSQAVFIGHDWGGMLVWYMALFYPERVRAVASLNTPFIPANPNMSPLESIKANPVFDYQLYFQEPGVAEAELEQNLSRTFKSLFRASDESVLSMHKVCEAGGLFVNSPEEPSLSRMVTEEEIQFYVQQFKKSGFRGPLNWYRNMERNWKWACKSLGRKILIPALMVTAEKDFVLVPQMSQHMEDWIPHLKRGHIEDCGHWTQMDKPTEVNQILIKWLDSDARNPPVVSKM
Assay: biochemical screening assay for inhibition of soluble epoxide hydrolase (fluorometric, Phome substrate)
Outline: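 Human sEH from Sf9 cells (2 nM final) was pre-incubated 15 min at 30 °C with compound (0.0001–10 μM), then reacted 60 min at 30 °C with 5 μM Phome in 25 mM Hepes/0.01% albumin. Fluorescence of released 6-methoxy-2-naphthaldehyde was read before substrate and at end; IC50 from % inhibition.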

SMILES	IC50 [µM]
Cc1ncccc1O[C@H]1CO[C@H]2[C@@H]1OC[C@@H]2NC(=O)NC1CCOc2ccccc21 (stereo partly drawn) [Example 207, 1-Chroman-4-yl-3-[(3S,3aR,6S,6aS)-6-(2-methyl-pyridin-3-yloxy)-hexa-hydro-furo[3,2-b]furan-3-yl]-urea]	0.003
COCCCNC(=O)NC1COC2C(Oc3cccnc3C)COC12 [Example 175, 1-(3-Methoxy-propyl)-3-[(3S,3aR,-6S,6aS)-6-(2-methyl-pyridin-3-yl-oxy)-hexahydro-furo[3,2-b]furan-3-yl]-urea]	0.975
Cc1ncccc1O[C@H]1CO[C@H]2[C@@H]1OC[C@@H]2NC(=O)NCC1CN(C)CCO1 (stereo partly drawn) [Example 219, 1-(4-Methyl-morpholin-2-ylmethyl)-3-[(3S,3aR,6S,6aS)-6-(2-methyl-pyridin-3-yloxy)-hexahydro-furo[3,2-b]furan-3-yl]-urea]	1.9
Cc1ncccc1O[C@H]1CO[C@H]2[C@@H]1OC[C@@H]2NC(=O)N1CCCC(F)(F)C1 [Example 278, 3,3-Difluoro-piperidine-1-carboxylic acid [(3S,3aR,6S,6aS)-6-(2-methyl-pyridin-3-yloxy)-hexahydro-furo[3,2-b]furan-3-yl]-amide]	0.924
O=C(Nc1cccc(C(F)(F)F)c1)N[C@H]1CO[C@H]2[C@@H]1OC[C@@H]2/C=C\c1ccsc1 [Example 346, 1-[(3S,3aR,6S,6aR)-6-((Z)-2-Thiophen-3-yl-vinyl)-hexahydro-furo[3,2-b]furan-3-yl]-3-(3-trifluoromethyl-phenyl)-urea]	0.062
COC(=O)c1cccc(NC(=O)N[C@H]2CO[C@H]3[C@@H]2OC[C@@H]3/C=C\c2ccsc2)c1 [Example 343, 3-{3-[(3S,3aR,6S,6aR)-6-((Z)-2-Thiophen-3-yl-vinyl)-hexahydro-furo[3,2-b]furan-3-yl]-ureido}-benzoic acid methyl ester]	0.102
Cc1cccc(CNC(=O)NC2COC3C(CCc4ccsc4)COC23)c1 [Example 365, 1-(3-Methyl-benzyl)-3-[(3S,3aR,6R)-6-((S)-2-thiophen-3-yl-ethyl)-hexa-hydro-furo[3,2-b]furan-3-yl]-urea]	0.145
Cc1cccnc1CCNC(=O)N[C@H]1CO[C@H]2[C@@H]1OC[C@@H]2Oc1cccnc1C [Example 205, 1-[2-(3-Methyl-pyridin-2-yl)-ethyl]-3-[(3S,3aR,6S,6aS)-6-(2-methyl-pyridin-3-yloxy)-hexahydro-furo[3,2-b]furan-3-yl]-urea]	0.528
Cc1ncccc1O[C@H]1CO[C@H]2[C@@H]1OC[C@@H]2NC(=O)NCc1c(C)n[nH]c1C [Example 222, 1-(3,5-Dimethyl-1H-pyrazol-4-ylmethyl)-3-[(3S,3aR,6S,6aS)-6-(2-methyl-pyridin-3-yloxy)-hexahydro-furo[3,2-b]furan-3-yl]-urea]	0.054
O=C(NCCc1ccccc1)N[C@H]1CO[C@H]2[C@@H]1OC[C@@H]2C#Cc1ccsc1 [Example 314, 1-Phenethyl-3-((3S,3aR,6S,-6aR)-6-thiophen-3-ylethynyl-hexahydro-furo[3,2-b]furan-3-yl)-urea]	0.033
O=C(Nc1ccc(OC(F)(F)F)cc1)N[C@H]1CO[C@H]2[C@@H]1OC[C@@H]2/C=C\c1ccccc1 [Example 332, 1-[(3S,3aR,6S,6aR)-6-((Z)-Styryl)-hexahydro-furo[3,2-b]furan-3-yl]-3-(4-trifluoromethoxy-phenyl)-urea]	0.011
O=C(NCc1ccc(F)cc1)N[C@H]1CO[C@H]2[C@@H]1OC[C@@H]2/C=C\c1ccsc1 [Example 338, 1-(4-Fluoro-benzyl)-3-[(3S,3aR,6S,6aR)-6-((Z)-2-thiophen-3-yl-vinyl)-hexahydro-furo[3,2-b]furan-3-yl]-urea]	0.392
Cc1ncccc1O[C@H]1CO[C@H]2[C@@H]1OC[C@@H]2NC(=O)NCc1ccc(OC(F)F)cc1 [Example 189, 1-(4-Difluoromethoxy-benzyl)-3-[(3S,3aR,6S,6aS)-6-(2-methyl-pyridin-3-yloxy)-hexahydro-furo[3,2-b]furan-3-yl]-urea]	0.023
NC[C@H]1CO[C@H]2[C@@H]1OC[C@@H]2N(Cc1ccccc1)C(=O)NC1CCCCC1 [Example 7, 1-((3S,3aR,6S,6aR)-6-aminomethyl-hexahydro-furo[3,2-b]furan-3-yl)-1-benzyl-3-cyclohexyl-urea; trifluoroacetate]	0.258
Cc1cc(C)cc(NC(=O)NC2COC3C(C=Cc4ccsc4)COC23)c1 [Example 336, 1-(3,5-Dimethyl-phenyl)-3-[(3S,3aR,6S,-6aR)-6-((Z)-2-thiophen-3-yl-vinyl)-hexahydro-furo[3,2-b]furan-3-yl]-urea]	0.047

Continued, values first:

IC50 [µM]	SMILES
0.003	O=C(NC1CCCCC1)N[C@H]1CO[C@H]2[C@@H]1OC[C@@H]2Oc1cccc(Cl)c1Cl [Example 97, 1-Cyclohexyl-3-[(3S,3aR,6S,6aS)-6-(2,3-dichloro-phenoxy)-hexahydro-furo[3,2-b]furan-3-yl]-urea]
0.002	O=C(NC1CCCCC1)N[C@H]1CO[C@H]2[C@@H]1OC[C@@H]2Oc1cccc(Br)c1 [Example 139, 1-[(3S,3aR,6S,6aS)-6-(3-Bromo-phenoxy)-hexahydro-furo[3,2-b]furan-3-yl]-3-cyclohexyl-urea]
0.005	Cc1ncccc1O[C@H]1CO[C@H]2[C@@H]1OC[C@@H]2NC(=O)NC1CCCCC1C (stereo partly drawn) [Example 259, 1-(2-Methyl-cyclohexyl)-3-[(3S,3aR,6S,6aS)-6-(2-methyl-pyridin-3-yloxy)-hexahydro-furo[3,2-b]furan-3-yl]-urea]
0.001	O=C(NC1CCCCC1)N[C@H]1CO[C@H]2[C@@H]1OC[C@@H]2Sc1ccc(Cl)cn1 [Example 63, 1-[(3S,3aR,6S,6aS)-6-(5-Chloro-pyridin-2-ylsulfanyl)-hexahydro-furo[3,2-b]furan-3-yl]-3-cyclohexyl-urea]
0.003	Cc1ncccc1O[C@H]1CO[C@H]2[C@@H]1OC[C@@H]2NC(=O)NC1CCC(C)CC1 (stereo partly drawn) [Example 257, 1-(4-Methyl-cyclohexyl)-3-[(3S,3aR,6S,6aS)-6-(2-methyl-pyridin-3-yloxy)-hexahydro-furo[3,2-b]furan-3-yl]-urea]
0.012	O=C(NC1CCCCC1)N[C@H]1CO[C@H]2[C@@H]1OC[C@@H]2Oc1cncc(F)c1 [Example 35, 1-Cyclohexyl-3-[(3S,3aR,6S,6aS)-6-(5-fluoro-pyridin-3-yloxy)-hexahydro-furo[3,2-b]furan-3-yl]-urea]
0.014	CC1CSc2c(O[C@H]3CO[C@H]4[C@@H]3OC[C@@H]4NC(=O)NC3CCCCC3)csc21 (stereo partly drawn) [Example 145, 1-Cyclohexyl-3-[(3S,3aR,6S,6aS)-6-(6-methyl-5,6-dihydro-thieno[3,2-b]thiophen-3-yloxy)-hexahydro-furo[3,2-b]furan-3-yl]-urea]
0.001	O=C(NC1CCCCC1)N[C@H]1CO[C@H]2[C@@H]1OC[C@@H]2Oc1ccccc1-c1ccccc1 [Example 23, 1-[(3S,3aR,6S,6aS)-6-(Biphenyl-2-yloxy)-hexahydro-furo[3,2-b]furan-3-yl]-3-cyclohexyl-urea]
0.001	Cc1nc(S[C@H]2CO[C@H]3[C@@H]2OC[C@@H]3NC(=O)NC2CCCCC2)sc1C [Example 62, 1-Cyclohexyl-3-[(3S,3aR,6S,6aS)-6-(4,5-dimethyl-thiazol-2-ylsulfanyl)-hexahydro-furo[3,2-b]furan-3-yl]-urea]
0.002	Cc1ncccc1O[C@H]1CO[C@H]2[C@@H]1OC[C@@H]2NC(=O)NC1C(C)CCCC1C (stereo partly drawn) [Example 269, 1-(2,6-Dimethyl-cyclohexyl)-3-[(3S,3aR,6S,6aS)-6-(2-methyl-pyridin-3-yloxy)-hexahydro-furo[3,2-b]furan-3-yl]-urea]
0.001	CC(C)(C)S[C@H]1CO[C@H]2[C@@H]1OC[C@@H]2NC(=O)NC1CCCCC1 [Example 21, 1-((3S,3aR,6S,6aS)-6-tert-Butylsulfanyl-hexahydro-furo[3,2-b]furan-3-yl)-3-cyclohexyl-urea]
0.144	COCC1(NC(=O)N[C@H]2CO[C@H]3[C@@H]2OC[C@@H]3Oc2cccnc2C)CCCC1 [Example 210, 1-(1-Methoxymethyl-cyclopentyl)-3-[(3S,3aR,6S,6aS)-6-(2-methyl-pyridin-3-yloxy)-hexahydro-furo[3,2-b]furan-3-yl]-urea]
0.099	Cc1ncccc1O[C@H]1CO[C@H]2[C@@H]1OC[C@@H]2NC(=O)NC1CCCCC1C(C)(C)C (stereo partly drawn) [Example 271, 1-(2-tert-Butyl-cyclohexyl)-3-[(3S,3aR,6S,6aS)-6-(2-methyl-pyridin-3-yloxy)-hexahydro-furo[3,2-b]furan-3-yl]-urea]
0.02	O=C(NC1CCCCC1)N[C@H]1CO[C@H]2[C@@H]1OC[C@@H]2Oc1ccccc1C(=O)N1CCOCC1 [Example 134, 1-Cyclohexyl-3-{(3S,3aR,6S,6aS)-6-[2-(morpholine-4-carbonyl)-phenoxy]-hexahydro-furo[3,2-b]furan-3-yl}-urea]
0.016	Cc1ncccc1O[C@H]1CO[C@H]2[C@@H]1OC[C@@H]2NC(=O)NC1CCCCC1(C)C (stereo partly drawn) [Example 270, 1-(2,2-Dimethyl-cyclohexyl)-3-[(3S,3aR,6S,6aS)-6-(2-methyl-pyridin-3-yloxy)-hexahydro-furo[3,2-b]furan-3-yl]-urea]
